Residues, ends and D or L forms follow the SMILES beside them. *: point of attachment. Cbz = O=C(OCc1ccccc1)*
Each compound was assayed on Vero-E6 cells (assay: cells). Details: Chlorocebus sabaeus, Vero C1008, 24 h, read-out: PL_Result.
Type: cell-based

| Compound | activation at 10 µM |
| --- | --- |
| CC[C@@H]([C@H](C)O)n1ncn(-c2ccc(N3CCN(c4ccc(OC[C@@H]5CO[C@@](Cn6cncn6)(c6ccc(F)cc6F)C5)cc4)CC3)cc2)c1=O [SPE_K06222852] | -4.55% |
| C=CCc1ccc(O)c(-c2ccc(O)c(CC=C)c2)c1 [SPE_K98493452] | -13.9% |
| Cc1ccc(S(=O)(=O)/C=C/C#N)cc1 [SPE_K15025317] | -2.64% |
| N#CC(c1ccccc1)(c1ccccc1)c1ccccc1Cl [SPE_K81341251] | 4.81% |
| CC(C)CNc1nc(-c2cccc3ncccc23)cn2c(-c3ccc(C(=O)NC4CC4)cc3)cnc12 [SPE_K18530250] | -11.5% |
| CN1CCN(c2nc(C3=C(c4c[nH]c5ccccc45)C(=O)NC3=O)c3ccccc3n2)CC1 [SPE_K16761703] | 37.5% |
| COCC(=O)O[C@]1(CCN(C)CCCc2nc3ccccc3[nH]2)CCc2cc(F)ccc2[C@@H]1C(C)C [SPE_K09549677] | 97.4% |
| CC[C@]1(O)C[C@H]2C[N@](CCc3c([nH]c4ccccc34)[C@@](C(=O)OC)(c3cc4c(cc3OC)N(C)[C@H]3[C@@](O)(C(N)=O)[C@H](O)[C@]5(CC)C=CCN6CC[C@]43[C@@H]65)C2)C1 [SPE_K59753975] | 7.07% |
| O=C(O)c1ccc2c(c1)nc(Nc1cccc(Cl)c1)c1ccncc12 [SPE_K81458380] | 1.48% |
| CN1CCN(c2nc3ccccc3nc2Cl)CC1 [SPE_K11046126] | -4.46% |
| C=CCc1cc(OC)c(O)c(C(=O)NCCO)c1 [SPE_K60102752] | -3.89% |
| Nc1ncnc2c1ncn2C1O[C@H](COP(=O)(O)O)[C@@H](O)[C@H]1O (stereo partly shown) [SPE_A10111329] | -12.1% |
| NC(Cc1c[nH]c2ccc(O)cc12)C(=O)O (stereo not shown) [SPE_A73930134] | -6.97% |
| C[C@H](NC(=O)CNC(=O)c1cccc(Cl)c1)c1ccccc1 [SPE_K19482962] | -10.5% |
| Cn1cc(C2=C(c3cn(C4CCN(Cc5ccccn5)CC4)c4ccccc34)C(=O)NC2=O)c2ccccc21 [SPE_K79404599] | -2.44% |
| Clc1ccc(Nc2nnc(Cc3ccncc3)c3ccccc23)cc1 [SPE_K70163715] | -2.12% |
| CCc1cc2c(c(CC)n1)CCC(=O)N2Cc1ccc(-c2ccccc2-c2nnn[nH]2)cc1 [SPE_K11373525] | -4.91% |
| CC(C)C[C@@H](C=O)NC(=O)[C@H](CC(C)C)NC(=O)[C@H](CC(C)C)NC(=O)OCc1ccccc1 [SPE_K60230970] (Cbz-Leu-Leu-Leu-aldehyde) | -0.437% |
| Cc1[nH]cnc1CN1CCc2c(c3ccccc3n2C)C1=O [SPE_K46742498] | 6.83% |
| C[C@@H]1C[C@H]2[C@@H]3CCC4=CC(=O)C=C[C@]4(C)[C@@]3(F)[C@@H](O)C[C@]2(C)[C@@]1(O)C(=O)CO [SPE_A10188456] | -8.72% |

| Compound | activation at 10 µM |
| --- | --- |
| CC(C)(C)NCC(O)c1cc(O)cc(O)c1 (stereo not shown) [SPE_M79902621] | -4.19% |
| CCCc1nc(C)c2c(=O)[nH]c(-c3cc(S(=O)(=O)N4CCN(CC)CC4)ccc3OCC)nn12 [SPE_K13926615] | 1% |
| Cc1cccc(C)c1NC(=O)c1ccccc1C(=O)O [SPE_K05724540] | -3.96% |
| N#Cc1cc(F)cc(-c2nc(-c3ccc(F)cn3)no2)c1 [SPE_K61043483] | 1.97% |
| CN1c2ccccc2C(=O)N2CCc3c([nH]c4ccccc34)C21 (stereo not shown) [SPE_A68631409] | -12.1% |
| CCOC(=O)C1=C[C@]2(CC)CCCN3CCc4c(n1c1ccccc41)[C@@H]32 [SPE_K53318339] | -10.5% |
| CCCCCCCCCCCCCCCCCC(=O)OCC(O)[C@H]1OC[C@H](O)[C@H]1O (stereo partly shown) [SPE_A70197423] | -4.54% |
| COc1ccccc1N1CCN(CCN2C(=O)c3ccccc3C(C)(C)C2=O)CC1 [SPE_K93188295] | -15% |
| O=C(Oc1ccccc1C(=O)O)c1ccccc1O [SPE_K48892307] | -11.6% |
| CC(C)N(CCC(C(N)=O)(c1ccccc1)c1ccccn1)C(C)C (stereo not shown) [SPE_A29734509] | 1.87% |
| O=C(O)CCNc1cc(N2CCc3ccccc3CC2)nc(-c2ccccn2)n1 [SPE_K32847255] | -5.77% |
| CN(CCCN1c2ccccc2CCc2ccccc21)CC(=O)c1ccc(Cl)cc1 [SPE_K82147103] | -0.728% |
| Cc1c(CN2CCN(C(=O)[C@H](C)O)CC2)sc2c(N3CCOCC3)nc(-c3cnc(N)nc3)nc12 [SPE_K23228615] | -5.95% |
| COc1cc(NS(=O)(=O)c2ccc(N)cc2)ncn1 [SPE_K14116214] | -1.27% |
| Cc1nc(Nc2ncc(C(=O)Nc3c(C)cccc3Cl)s2)cc(N2CCN(CCO)CC2)n1 [SPE_K49328571] | 0.377% |
| C=C[C@@]1(C)CC(=O)[C@@]2(O)[C@](C)(O1)[C@@H](OC(C)=O)[C@@H](O)C1C(C)(C)CC[C@H](O)[C@@]12C (stereo partly shown) [SPE_A55416093] | -12.3% |
| O=C(O)CC1CC(c2ccccc2)=NO1 (stereo not shown) [SPE_A32269193] | -19.4% |
| CCOC(=O)c1ccccc1OC(N)=O [SPE_K21892374] | 3.89% |
| O=C(Nc1cccc(Cl)c1)c1ccccn1 [SPE_K66527818] | -8.01% |
| CCN(CC)C(=O)N1CCN(C)CC1 [SPE_K45542189] | 3.18% |

— article PMC13083723 (Patterns, 2026)
